Laboratory results: PubChem BioAssay AID1963869 (Molecular Pharmacology Branch, DTP, NCI, 2024)

Tested on: KRAS patient-derived spheroids with HUVEC/MSC, viability
Test: Anticancer human tumor 323965-272-R-J2-PDC patient-derived pancreatic carcinoma cell line growth inhibition [KRAS2]
Conditions: curve of first compound; second compound 0.1 µM
Text: Multicellular complex tumor spheroid response to RAS pathway inhibitors in combination with a targeted agents in patient-derived cell lines with oncogenic KRAS variants from multiple cancer types
A high-throughput screen of multi-cell type tumor spheroids was designed to identify active combinations of targeted small molecules and KRAS pathway inhibitors. Complex spheroids include a stromal component modeled by human endothelial cells (HUVEC) and fibroblasts modeled by human mesenchymal stem cells (MSCs). The concentration ranges selected for each drug and investigational agent were based upon clinically achievable concentrations if the clinical Cmax of the agent was known.
Compounds. The drugs and investigational agents: BI-3406 (NSC825286), BAY-293 (NSC824723), batoprotafib (TNO155; NSC825523), sotorasib (AMG 510; NSC818433), MRTX1257 (NSC819558), elimusertib (BAY 1895344; NSC800525), molibresib (GSK525762; NSC774829), temuterkib (LY3214996; NSC803410), venetoclax (NSC766270), alisertib (NSC759677), olaparib (NSC753686), talazoparib (NSC767125), erdafitinib (NSC781556), ipatasertib (NSC767898), cabozantinib (NSC761068), nintedanib (NSC756659), abemaciclib (NSC768073), docetaxel (NSC628503), trametinib (NSC758246), and sapanisertib (NSC764658) were obtained from the National Cancer Institute (NCI) Developmental Therapeutics Program Chemical Repository. The FDA-approved anticancer drug set is available from the Developmental Therapeutics Program. […] The stock solutions were prepared in dimethyl sulfoxide (DMSO, Sigma-Aldrich, St. Louis, MO, cat. D2650) at 800-fold the tested concentration and stored at -70 degrees C prior to their use. All drugs and investigational agents were tested over a range starting from a high concentration at or near the clinical Cmax and decreasing in half-log increments. If the clinical Cmax for an agent had not been determined, the highest concentration tested was 10 microM.
Cell Culture. All cells were maintained in an incubator at 37 degrees C and 5% CO2 with 95% humidity. The PDC lines were cultured according to standard operating procedures established by the NCI PDMR (https://pdmr.cancer.gov/sops/default.htm). Briefly, all PDCs were thawed and cultured in Matrigel-coated flasks prepared with a working solution of 1X Ham's F-12 nutrient mix, without supplementation (Invitrogen, Waltham, MA, cat. 11765054), 100 U/mL penicillin-streptomycin (Invitrogen, cat. 15140122), and 2.5% Matrigel (Corning Inc., Corning, NY, cat. 354248) for the first three passages. All PDCs were cultured in complete DMEM/F-12 media containing advanced DMEM/F-12 (Invitrogen, cat. 12634028), 4.9% defined fetal bovine serum, heat inactivated (HyClone Laboratories Inc., Logan, UT, cat. SH30070.03HI), 389 ng/mL hydrocortisone (Sigma-Aldrich, cat. H4001), 9.7 ng/mL human EGF recombinant protein (Invitrogen, cat. PHG0313), 23.4 microg/mL adenine (Sigma-Aldrich, cat. A2786), 97.3 U/mL penicillin-streptomycin (Invitrogen, cat. 15140122), 1.9 mM L-glutamine (Invitrogen, cat. 25030081), and 9.7 microM Y-27632 dihydrochloride (Tocris Bioscience, Bristol, United Kingdom, cat. 1254). The PDCs were cultured in complete DMEM/F12 media without 9.7 microM Y-27632 dihydrochloride for at least two passages prior to the screen. The established cell line HOP-62 was cultured in RPMI 1640 medium, HEPES (Invitrogen, cat. 22400105) with 10% defined fetal bovine serum (HyClone Laboratories Inc., cat. SH30070.03) and 2 mM L-glutamine (Invitrogen, cat. 25030081). The pooled donor HUVEC were cultured in endothelial cell growth medium 2 (PromoCell, Heidelberg, Germany, cat. C-22011) and the hMSC were cultured in mesenchymal stem cell growth medium 2 (PromoCell, cat. C-28009). For all experiments, HUVEC and hMSC were used at passages </=5, while the malignant cell lines were used at passages </=15. […]
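Further: spheroids exposed to agents for 7 days.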
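Wherever viability, T/C is given: 100% = DMSO vehicle control viability.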

SMILES | IC50 [nM]
CC1COCCN1c1cc(-c2ccnn2C)c2ccnc(-c3ccn[nH]3)c2n1 (stereo not given) + C=CC(=O)N1CCN(c2nc(=O)n(-c3c(C)ccnc3C(C)C)c3nc(-c4c(O)cccc4F)c(F)cc23)C(C)C1 | 11.6
CC1OCC2(CCN(c3cnc(Sc4ccnc(N)c4Cl)c(N)n3)CC2)C1N (stereo not given) + C=CC(=O)N1CCN(c2nc(=O)n(-c3c(C)ccnc3C(C)C)c3nc(-c4c(O)cccc4F)c(F)cc23)C(C)C1 | < 31.6
CCNC(=O)CC1N=C(c2ccc(Cl)cc2)c2cc(OC)ccc2-n2c(C)nnc21 (stereo not given) + C=CC(=O)N1CCN(c2nc(=O)n(-c3c(C)ccnc3C(C)C)c3nc(-c4c(O)cccc4F)c(F)cc23)C(C)C1 | 116
Cn1nccc1Nc1nccc(-c2cc3c(s2)C(C)(C)N(CCN2CCOCC2)C3=O)n1 + C=CC(=O)N1CCN(c2nc(=O)n(-c3c(C)ccnc3C(C)C)c3nc(-c4c(O)cccc4F)c(F)cc23)C(C)C1 | 67.8

Same assay, conditions: curve of first compound; second compound 0.316 µM

SMILES | IC50 [nM]
CC1COCCN1c1cc(-c2ccnn2C)c2ccnc(-c3ccn[nH]3)c2n1 (stereo not given) + C=CC(=O)N1CCN(c2nc(=O)n(-c3c(C)ccnc3C(C)C)c3nc(-c4c(O)cccc4F)c(F)cc23)C(C)C1 | < 10
CC1OCC2(CCN(c3cnc(Sc4ccnc(N)c4Cl)c(N)n3)CC2)C1N (stereo not given) + C=CC(=O)N1CCN(c2nc(=O)n(-c3c(C)ccnc3C(C)C)c3nc(-c4c(O)cccc4F)c(F)cc23)C(C)C1 | < 31.6
CCNC(=O)CC1N=C(c2ccc(Cl)cc2)c2cc(OC)ccc2-n2c(C)nnc21 (stereo not given) + C=CC(=O)N1CCN(c2nc(=O)n(-c3c(C)ccnc3C(C)C)c3nc(-c4c(O)cccc4F)c(F)cc23)C(C)C1 | 135
Cn1nccc1Nc1nccc(-c2cc3c(s2)C(C)(C)N(CCN2CCOCC2)C3=O)n1 + C=CC(=O)N1CCN(c2nc(=O)n(-c3c(C)ccnc3C(C)C)c3nc(-c4c(O)cccc4F)c(F)cc23)C(C)C1 | < 31.6

Same assay, conditions: curve of first compound; second compound 1 µM

SMILES | IC50 [nM]
CC1COCCN1c1cc(-c2ccnn2C)c2ccnc(-c3ccn[nH]3)c2n1 (stereo not given) + C=CC(=O)N1CCN(c2nc(=O)n(-c3c(C)ccnc3C(C)C)c3nc(-c4c(O)cccc4F)c(F)cc23)C(C)C1 | 11.9
CC1OCC2(CCN(c3cnc(Sc4ccnc(N)c4Cl)c(N)n3)CC2)C1N (stereo not given) + C=CC(=O)N1CCN(c2nc(=O)n(-c3c(C)ccnc3C(C)C)c3nc(-c4c(O)cccc4F)c(F)cc23)C(C)C1 | < 31.6
CCNC(=O)CC1N=C(c2ccc(Cl)cc2)c2cc(OC)ccc2-n2c(C)nnc21 (stereo not given) + C=CC(=O)N1CCN(c2nc(=O)n(-c3c(C)ccnc3C(C)C)c3nc(-c4c(O)cccc4F)c(F)cc23)C(C)C1 | 51.8
Cn1nccc1Nc1nccc(-c2cc3c(s2)C(C)(C)N(CCN2CCOCC2)C3=O)n1 + C=CC(=O)N1CCN(c2nc(=O)n(-c3c(C)ccnc3C(C)C)c3nc(-c4c(O)cccc4F)c(F)cc23)C(C)C1 | < 31.6

Same assay, conditions: curve of first compound; second compound 3.16 µM

SMILES | IC50 [nM]
CC1COCCN1c1cc(-c2ccnn2C)c2ccnc(-c3ccn[nH]3)c2n1 (stereo not given) + C=CC(=O)N1CCN(c2nc(=O)n(-c3c(C)ccnc3C(C)C)c3nc(-c4c(O)cccc4F)c(F)cc23)C(C)C1 | < 10
CC1OCC2(CCN(c3cnc(Sc4ccnc(N)c4Cl)c(N)n3)CC2)C1N (stereo not given) + C=CC(=O)N1CCN(c2nc(=O)n(-c3c(C)ccnc3C(C)C)c3nc(-c4c(O)cccc4F)c(F)cc23)C(C)C1 | < 31.6
CCNC(=O)CC1N=C(c2ccc(Cl)cc2)c2cc(OC)ccc2-n2c(C)nnc21 (stereo not given) + C=CC(=O)N1CCN(c2nc(=O)n(-c3c(C)ccnc3C(C)C)c3nc(-c4c(O)cccc4F)c(F)cc23)C(C)C1 | 111
Cn1nccc1Nc1nccc(-c2cc3c(s2)C(C)(C)N(CCN2CCOCC2)C3=O)n1 + C=CC(=O)N1CCN(c2nc(=O)n(-c3c(C)ccnc3C(C)C)c3nc(-c4c(O)cccc4F)c(F)cc23)C(C)C1 | > 10000

Same assay, conditions: curve of first compound; second compound 10 µM

SMILES | IC50 [nM]
CC1COCCN1c1cc(-c2ccnn2C)c2ccnc(-c3ccn[nH]3)c2n1 (stereo not given) + C=CC(=O)N1CCN(c2nc(=O)n(-c3c(C)ccnc3C(C)C)c3nc(-c4c(O)cccc4F)c(F)cc23)C(C)C1 | < 10
CC1OCC2(CCN(c3cnc(Sc4ccnc(N)c4Cl)c(N)n3)CC2)C1N (stereo not given) + C=CC(=O)N1CCN(c2nc(=O)n(-c3c(C)ccnc3C(C)C)c3nc(-c4c(O)cccc4F)c(F)cc23)C(C)C1 | < 31.6
CCNC(=O)CC1N=C(c2ccc(Cl)cc2)c2cc(OC)ccc2-n2c(C)nnc21 (stereo not given) + C=CC(=O)N1CCN(c2nc(=O)n(-c3c(C)ccnc3C(C)C)c3nc(-c4c(O)cccc4F)c(F)cc23)C(C)C1 | < 31.6
Cn1nccc1Nc1nccc(-c2cc3c(s2)C(C)(C)N(CCN2CCOCC2)C3=O)n1 + C=CC(=O)N1CCN(c2nc(=O)n(-c3c(C)ccnc3C(C)C)c3nc(-c4c(O)cccc4F)c(F)cc23)C(C)C1 | < 31.6

Same assay, conditions: second compound 0.1 µM; first compound 0.01 µM; stronger effect = lower value

SMILES | viability, T/C [%]
CC1COCCN1c1cc(-c2ccnn2C)c2ccnc(-c3ccn[nH]3)c2n1 (stereo not given) + C=CC(=O)N1CCN(c2nc(=O)n(-c3c(C)ccnc3C(C)C)c3nc(-c4c(O)cccc4F)c(F)cc23)C(C)C1 | 53.6

Same assay, conditions: second compound 0.1 µM; first compound 0.0316 µM; stronger effect = lower value

SMILES | viability, T/C [%]
CC1COCCN1c1cc(-c2ccnn2C)c2ccnc(-c3ccn[nH]3)c2n1 (stereo not given) + C=CC(=O)N1CCN(c2nc(=O)n(-c3c(C)ccnc3C(C)C)c3nc(-c4c(O)cccc4F)c(F)cc23)C(C)C1 | 28
CC1OCC2(CCN(c3cnc(Sc4ccnc(N)c4Cl)c(N)n3)CC2)C1N (stereo not given) + C=CC(=O)N1CCN(c2nc(=O)n(-c3c(C)ccnc3C(C)C)c3nc(-c4c(O)cccc4F)c(F)cc23)C(C)C1 | 41.2
CCNC(=O)CC1N=C(c2ccc(Cl)cc2)c2cc(OC)ccc2-n2c(C)nnc21 (stereo not given) + C=CC(=O)N1CCN(c2nc(=O)n(-c3c(C)ccnc3C(C)C)c3nc(-c4c(O)cccc4F)c(F)cc23)C(C)C1 | 54.6
Cn1nccc1Nc1nccc(-c2cc3c(s2)C(C)(C)N(CCN2CCOCC2)C3=O)n1 + C=CC(=O)N1CCN(c2nc(=O)n(-c3c(C)ccnc3C(C)C)c3nc(-c4c(O)cccc4F)c(F)cc23)C(C)C1 | 52

Same assay, conditions: second compound 0.1 µM; first compound 0.1 µM; stronger effect = lower value

SMILES | viability, T/C [%]
CC1COCCN1c1cc(-c2ccnn2C)c2ccnc(-c3ccn[nH]3)c2n1 (stereo not given) + C=CC(=O)N1CCN(c2nc(=O)n(-c3c(C)ccnc3C(C)C)c3nc(-c4c(O)cccc4F)c(F)cc23)C(C)C1 | 18.7
CC1OCC2(CCN(c3cnc(Sc4ccnc(N)c4Cl)c(N)n3)CC2)C1N (stereo not given) + C=CC(=O)N1CCN(c2nc(=O)n(-c3c(C)ccnc3C(C)C)c3nc(-c4c(O)cccc4F)c(F)cc23)C(C)C1 | 31.8
CCNC(=O)CC1N=C(c2ccc(Cl)cc2)c2cc(OC)ccc2-n2c(C)nnc21 (stereo not given) + C=CC(=O)N1CCN(c2nc(=O)n(-c3c(C)ccnc3C(C)C)c3nc(-c4c(O)cccc4F)c(F)cc23)C(C)C1 | 52.5
Cn1nccc1Nc1nccc(-c2cc3c(s2)C(C)(C)N(CCN2CCOCC2)C3=O)n1 + C=CC(=O)N1CCN(c2nc(=O)n(-c3c(C)ccnc3C(C)C)c3nc(-c4c(O)cccc4F)c(F)cc23)C(C)C1 | 49.4

Same assay, conditions: second compound 0.1 µM; first compound 0.316 µM; stronger effect = lower value

SMILES | viability, T/C [%]
CC1COCCN1c1cc(-c2ccnn2C)c2ccnc(-c3ccn[nH]3)c2n1 (stereo not given) + C=CC(=O)N1CCN(c2nc(=O)n(-c3c(C)ccnc3C(C)C)c3nc(-c4c(O)cccc4F)c(F)cc23)C(C)C1 | 13.7
CC1OCC2(CCN(c3cnc(Sc4ccnc(N)c4Cl)c(N)n3)CC2)C1N (stereo not given) + C=CC(=O)N1CCN(c2nc(=O)n(-c3c(C)ccnc3C(C)C)c3nc(-c4c(O)cccc4F)c(F)cc23)C(C)C1 | 25
CCNC(=O)CC1N=C(c2ccc(Cl)cc2)c2cc(OC)ccc2-n2c(C)nnc21 (stereo not given) + C=CC(=O)N1CCN(c2nc(=O)n(-c3c(C)ccnc3C(C)C)c3nc(-c4c(O)cccc4F)c(F)cc23)C(C)C1 | 35.9
Cn1nccc1Nc1nccc(-c2cc3c(s2)C(C)(C)N(CCN2CCOCC2)C3=O)n1 + C=CC(=O)N1CCN(c2nc(=O)n(-c3c(C)ccnc3C(C)C)c3nc(-c4c(O)cccc4F)c(F)cc23)C(C)C1 | 46.8

Same assay, conditions: second compound 0.1 µM; first compound 1 µM; stronger effect = lower value

SMILES | viability, T/C [%]
CC1COCCN1c1cc(-c2ccnn2C)c2ccnc(-c3ccn[nH]3)c2n1 (stereo not given) + C=CC(=O)N1CCN(c2nc(=O)n(-c3c(C)ccnc3C(C)C)c3nc(-c4c(O)cccc4F)c(F)cc23)C(C)C1 | 13.8
CC1OCC2(CCN(c3cnc(Sc4ccnc(N)c4Cl)c(N)n3)CC2)C1N (stereo not given) + C=CC(=O)N1CCN(c2nc(=O)n(-c3c(C)ccnc3C(C)C)c3nc(-c4c(O)cccc4F)c(F)cc23)C(C)C1 | 15.9
